Molecular target: human FAK (Homo sapiens (Human), UniProt Q05397)
Conditions: read-out: FAK IC50

Chain of human FAK (Q05397 whole entry): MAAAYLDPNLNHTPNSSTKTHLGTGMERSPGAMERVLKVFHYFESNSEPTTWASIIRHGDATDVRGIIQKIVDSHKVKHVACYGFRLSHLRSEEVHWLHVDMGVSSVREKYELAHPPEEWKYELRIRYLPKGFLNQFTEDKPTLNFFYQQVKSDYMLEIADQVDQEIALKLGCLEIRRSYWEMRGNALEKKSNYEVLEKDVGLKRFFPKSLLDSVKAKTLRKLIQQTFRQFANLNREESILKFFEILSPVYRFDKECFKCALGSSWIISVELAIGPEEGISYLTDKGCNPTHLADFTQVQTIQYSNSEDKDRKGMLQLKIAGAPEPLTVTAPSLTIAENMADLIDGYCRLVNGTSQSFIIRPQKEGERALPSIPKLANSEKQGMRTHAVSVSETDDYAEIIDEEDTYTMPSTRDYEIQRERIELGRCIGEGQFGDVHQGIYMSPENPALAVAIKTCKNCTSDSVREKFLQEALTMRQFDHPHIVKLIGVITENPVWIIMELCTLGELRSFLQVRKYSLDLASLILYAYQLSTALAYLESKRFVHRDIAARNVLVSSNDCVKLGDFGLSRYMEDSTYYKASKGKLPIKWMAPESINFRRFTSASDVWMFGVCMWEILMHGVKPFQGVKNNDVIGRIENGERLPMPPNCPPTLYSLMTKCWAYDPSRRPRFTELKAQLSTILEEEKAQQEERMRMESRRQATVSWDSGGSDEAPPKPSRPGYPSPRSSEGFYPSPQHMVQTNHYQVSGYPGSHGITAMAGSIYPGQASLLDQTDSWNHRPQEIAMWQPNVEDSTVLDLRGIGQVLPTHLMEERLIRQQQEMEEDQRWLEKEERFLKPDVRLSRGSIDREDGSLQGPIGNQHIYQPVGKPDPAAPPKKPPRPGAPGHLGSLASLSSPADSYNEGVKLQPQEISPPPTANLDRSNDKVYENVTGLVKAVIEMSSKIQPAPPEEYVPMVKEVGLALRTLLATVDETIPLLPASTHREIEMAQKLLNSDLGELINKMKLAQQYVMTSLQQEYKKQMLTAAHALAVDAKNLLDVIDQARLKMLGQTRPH

Compound | IC50 [nM]
CS(=O)(=O)CCN1CCC(c2cccc(Nc3nc4c(-c5ccc(S(C)(=O)=O)cc5)cccn4n3)c2)CC1 [Example 190, {3-[1-(2-Methanesulfonyl-ethyl)-piperidin-4-yl]-phenyl}-[8-(4-methanesulfonyl-phenyl)-[1,2,4]triazolo[1,5-a]pyridin-2-yl]-amine] | 580
CCN1CCN(c2cccc(Nc3nc4c(-c5ccc(S(C)(=O)=O)cc5)cccn4n3)c2)C(=O)C1 [Example 205, 4-Ethyl-1-{3-[8-(4-methanesulfonyl-phenyl)-[1,2,4]triazolo[1,5-a]pyridin-2-ylamino]-phenyl}-piperazin-2-one] | 10000
CCn1cc(Nc2nc3c(-c4ccc(C(F)(F)F)cc4)cccn3n2)cn1 [Example 215, (1-Ethyl-1H-pyrazol-4-yl)-[8-(4-trifluoromethyl-phenyl)-[1,2,4]triazolo[1,5-a]pyridin-2-yl]-amine] | 10000
COc1cc(C(F)(F)F)ccc1-c1cccc2nc(Nc3ccc4c(c3)CCN(CCS(C)(=O)=O)CC4)nn12 [Example 238] | 1950
FC1(F)Oc2cccc(-c3cccn4nc(Nc5ccc6c(c5)CCNCC6)nc34)c2O1 [Example 244, [8-(2,2-difluoro-1,3-benzodioxol-4-yl)-[1,2,4]triazolo[1,5-a]pyridin-2-yl]-(2,3,4,5-tetrahydro-1H-3-benzazepin-7-yl)amine] | 6500
CN1CCN(c2ccc(Nc3nc4c(OCc5cccc(Cl)c5)cccn4n3)cc2)CC1 [Example 260, [8-(3-Chloro-benzyloxy)-[1,2,4]triazolo[1,5-a]pyridin-2-yl]-[4-(4-methyl-piperazin-1-yl)-phenyl]-amine] | 1100
CN1CCN(c2cccc(Nc3nc4c(OCc5ccccc5C#N)cccn4n3)c2)CC1 [Example 263, 2-{2-[3-(4-Methyl-piperazin-1-yl)-phenylamino]-[1,2,4]triazolo[1,5-a]pyridin-8-yloxymethyl}-benzonitrile] | 3000
Fc1ccc(C(F)(F)F)cc1-c1cccn2nc(Nc3ccc4c(c3)CCNCC4)nc12 [Example 270, [8-(2-Fluoro-5-trifluoromethyl-phenyl)-[1,2,4]triazolo[1,5-a]pyridin-2-yl]-[2,3,4,5-tetrahydro-1H-benzo[d]azopin-7-yl]-amine] | 6500
O=c1[nH]cccc1-c1cccn2nc(Nc3ccc4ncccc4c3)nc12 [Example 276, 3-[2-(Quinolin-6-ylamino)-[1,2,4]triazolo[1,5-a]pyridin-8-yl]-1H-pyridin-2-one] | 10000
CN(C)C(=O)CN1CCC(c2ccc(Nc3nc4c(-c5cnn(-c6ccc(F)cc6)c5)cccn4n3)cc2)CC1 [Example 283, 2-[4-(4-{8-{1-(4-Fluoro-phenyl)1H-pyrazol-4-yl}-[1,2,4]triazolo[1,5-a]pyridine-2-ylamino}-phenyl)-piperidin-1-yl]-N,N-dimethyl-acetamide] | 1370
CC(C)Oc1ccccc1-c1cccn2nc(Nc3ccc4c(c3)CCNCC4)nc12 [Example 299, [8-(2-Isopropoxy-phenyl]-[1,2,4]triazolo[1,5a]pyridine-2-yl]-(2,3,4,5-tetrahydro-benzo[d]azepin-7-yl)-amine] | 999
CC(C)Oc1ccc(C(F)(F)F)cc1-c1cccn2nc(Nc3ccc4c(c3)CCN(CC(=O)N(C)C)CC4)nc12 [Example 326, 2-{7-[8-(2-Isopropoxy-5-trifluoromethyl-phenyl)-[1,2,4]triazolo[1,5-a]pyridin-2-ylamino]-1,2,4,5-tetrahydro-3-benzazepin-3-yl}-N,N-dimethyl-acetamide] | 5500
COc1cccc(-c2cccn3nc(Nc4ccc5c(c4)CNC5)nc23)c1 [Example 346, (2,3-Dihydro-1H-isoindol-5-yl)-[8-(3-methoxy-phenyl)-[1,2,4]-triazolo[1,5-a]pyridin-2-yl]-amine] | 999
FC(F)COc1ccccc1-c1cccn2nc(Nc3ccc4c(c3)CCNCC4)nc12 [Example 367, {8-[2-(2,2-Difluoro-ethoxy)-phenyl]-[1,2,4]triazolo[1,5-a]pyridin-2-yl}-(2,3,4,5-tetrahydro-1H-3-benzazepin-7-yl)-amine] | 1910
CC(C)COc1ccc(C(F)(F)F)cc1-c1cccn2nc(Nc3ccc4c(c3)CCNCC4)nc12 [Example 379, [8-(2-Isobutoxy-5-trifluoromethyl-phenyl)-[1,2,4]triazolo[1,5-a]pyridin-2-yl]-(2,3,4,5-tetrahydro-1H-3-benzazepin-7-yl)-amine] | 3000
COc1cccc(CNc2cccn3nc(Nc4ccncc4)nc23)c1 [Example 399, N(8)-(3-Methoxy-benzyl)-N(2)-pyridin-4-yl-[1,2,4]triazolo[1,5-a]pyridine-2,8-diamine] | 10000
COc1ccccc1CNc1cccn2nc(Nc3ccncc3)nc12 [Example 401, N(8)-(2-Methoxy-benzyl)-N(2)-pyridin-4-yl-[1,2,4]triazolo[1,5-a]pyridine-2,8-diamine] | 6500
COc1ccc(C(F)(F)F)cc1-c1cccn2nc(Nc3cccc(C4CCN(CC(=O)N(C)C)CC4)c3)nc12 [Example 410] | 658

Molecular target: human JAK2 (Homo sapiens (Human), UniProt O60674)
Sequence (O60674 815-1132): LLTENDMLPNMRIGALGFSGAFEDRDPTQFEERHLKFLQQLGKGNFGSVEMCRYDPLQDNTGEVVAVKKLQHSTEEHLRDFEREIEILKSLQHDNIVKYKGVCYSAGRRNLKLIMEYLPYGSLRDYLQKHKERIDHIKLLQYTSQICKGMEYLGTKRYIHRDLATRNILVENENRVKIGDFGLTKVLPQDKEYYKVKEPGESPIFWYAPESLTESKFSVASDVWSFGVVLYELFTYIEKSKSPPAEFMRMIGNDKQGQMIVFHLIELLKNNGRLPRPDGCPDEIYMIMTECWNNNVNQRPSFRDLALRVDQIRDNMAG
Conditions: read-out: JAK2 IC50

Compound | IC50 [nM]
c1ccc(Nc2nc3ccccn3n2)cc1 [Example 1, Phenyl-[1,2,4]triazolo[1,5-a]pyridin-2-yl-amine] | 1090
c1cc(-c2ccncc2)c2nc(Nc3ccc(OCCN4CCCC4)cc3)nn2c1 [Example 15, (8-pyridin-4-yl-[1,2,4]triazolo[1,5-a]pyridin-2-yl)-[4-(2-pyrrolidin-1-yl-ethoxy)-phenyl]-amine] | 3000
CS(=O)(=O)c1ccc(-c2cccn3nc(Nc4ccc(N5CCCCC5)cc4)nc23)cc1 [Example 18, [8-(4-Methanesulfonyl-phenyl)-[1,2,4]triazolo[1,5-a]pyridin-2-yl]-(4-piperidin-1-yl-phenyl)-amine] | 0.6
COc1ccccc1Nc1nc2c(-c3cccc(C(F)(F)F)c3)cccn2n1 [Example 21, (2-Methoxy-phenyl)-[8-(3-trifluoromethyl-phenyl)-[1,2,4]triazolo[1,5-a]pyridin-2-yl]-amine] | 3000
COc1ccccc1Nc1nc2c(-c3ccc(S(C)(=O)=O)cc3)cccn2n1 [Example 25, [8-(4-Methanesulfonyl-phenyl)-[1,2,4]triazolo[1,5-a]pyridin-2-yl]-(2-methoxy-phenyl)-amine] | 1320
CC1(C)CCC(C)(C)c2cc(Nc3nc4c(-c5ccc(S(C)(=O)=O)cc5)cccn4n3)ccc21 [Example 28, [8-(4-Methanesulfonyl-phenyl)-[1,2,4]triazolo[1,5-a]pyridin-2-yl]-(5,5,8,8-tetramethyl-5,6,7,8-tetrahydro-naphthalen-2-yl)-amine] | 27.7
COc1ccc(Nc2nc3c(N4CCN(C)CC4)cccn3n2)cc1 [Example 30, (4-Methoxy-phenyl)-[8-(4-methyl-piperazin-1-yl)-[1,2,4]triazolo[1,5-a]pyridin-2-yl]-amine] | 441
COc1ccc(Nc2nc3c(N4CCN(S(C)(=O)=O)CC4)cccn3n2)cc1 [Example 33, [8-(4-Methanesulfonyl-piperazin-1-yl)-[1,2,4]triazolo[1,5-a]pyridin-2-yl]-(4-methoxy-phenyl)-amine] | 60.4
COc1ccc(Nc2nc3c(C4=CCN(S(C)(=O)=O)CC4)cccn3n2)cc1 [Example 34, [8-(1-Methanesulfonyl-1,2,3,6-tetrahydro-pyridin-4-yl)-[1,2,4]triazolo[1,5-a]pyridin-2-yl]-(4-methoxy-phenyl)-amine] | 1
CN1CCN(c2ccc(Nc3nc4ccc(-c5ccc(S(C)(=O)=O)cc5)cn4n3)cc2)CC1 [Example 37, [6-(4-Methanesulfonyl-phenyl)-[1,2,4]triazolo[1,5-a]pyridin-2-yl]-[4-(4-methyl-piperazin-1-yl)-phenyl]-amine] | 2970
COc1ccc(Nc2nc3c(NC4CCN(S(C)(=O)=O)CC4)cccn3n2)cc1 [Example 41, N(8)-(1-Methanesulfonyl-piperidin-4-yl)-N(2)-(4-methoxy-phenyl)-[1,2,4]triazolo[1,5-a]pyridine-2,8-diamine] | 375
CS(=O)(=O)c1ccc(-c2cccn3nc(Nc4ccc(OS(=O)(=O)C(F)(F)C(F)(F)C(F)(F)C(F)(F)F)cc4)nc23)cc1 [Example 45, 1,1,2,2,3,3,4,4,4-Nonafluoro-butane-1-sulfonic acid 4-[8-(4-methanesulfonyl-phenyl)-[1,2,4]triazolo[1,5-a]pyridin-2-ylamino]-phenyl ester] | 106
CN1CCN(c2cccc(Nc3nc4c(-c5ccccc5S(C)(=O)=O)cccn4n3)c2)CC1 [Example 67, [8-(2-Methanesulfonyl-phenyl)-[1,2,4]triazolo[1,5-a]pyridin-2-yl]-[3-(4-methyl-piperazin-1-yl)-phenyl]-amine] | 2500
CN1CCN(c2cccc(Nc3nc4c(Nc5ccccc5S(C)(=O)=O)cccn4n3)c2)CC1 [Example 68, N(8)-(2-Methanesulfonyl-phenyl)-N(2)-[3-(4-methyl-piperazin-1-yl)-phenyl]-[1,2,4]triazolo[1,5-a]pyridine-2,8-diamine] | 29
CC(C)(C)OC(=O)N1CCN(c2ccc(Nc3nc4cccc(-c5ccccc5)n4n3)cc2)CC1 [Example 77, 4-[4-(5-Phenyl-[1,2,4]triazolo[1,5-a]pyridin-2-ylamino)-phenyl]-piperazine-1-carboxylic acid tert-butyl ester] | 6.6
COc1cccc(Nc2nc3cccc(-c4cccc(S(C)(=O)=O)c4)n3n2)c1 [Example 79, [5-(3-Methanesulfonyl-phenyl)-[1,2,4]triazolo[1,5-a]pyridin-2-yl]-(3-methoxy-phenyl)-amine] | 15.1
COc1ccccc1Nc1nc2cccc(-c3cccc(S(C)(=O)=O)c3)n2n1 [Example 80, [5-(3-Methanesulfonyl-phenyl)-[1,2,4]triazolo[1,5-a]pyridin-2-yl]-(2-methoxy-phenyl)-amine] | 1210
CN1CCN(c2ccc(NC(=O)Nc3nc4cccc(-c5ccc(S(C)(=O)=O)cc5)n4n3)cc2)CC1 [Example 90, 1-[5-(4-Methanesulfonyl-phenyl)-[1,2,4]triazolo[1,5-a]pyridin-2-yl]-3-[4-(4-methyl-piperazin-1-yl)-phenyl]-urea] | 1530

Source: patent publication US8501936B2 (priority 2009, dated 2013)
